Experimental data: article PMC7765920 (Molecules, 2020)
Like-named read-outs stand apart in the source and are kept apart here. Marks after values point to notes of the source that are not given here.

Tests used:
Format in all cases: biochemical
human recombinant MAO-A = target: T1, human recombinant MAO-A (Homo sapiens, UniProt P21397); test: MAO-GLO luminescence assay of MAO-A catalytic activity; details: for remaining activity at 1 µM: read-out: MAO-A residual activity
T1 sequence (P21397 1-527): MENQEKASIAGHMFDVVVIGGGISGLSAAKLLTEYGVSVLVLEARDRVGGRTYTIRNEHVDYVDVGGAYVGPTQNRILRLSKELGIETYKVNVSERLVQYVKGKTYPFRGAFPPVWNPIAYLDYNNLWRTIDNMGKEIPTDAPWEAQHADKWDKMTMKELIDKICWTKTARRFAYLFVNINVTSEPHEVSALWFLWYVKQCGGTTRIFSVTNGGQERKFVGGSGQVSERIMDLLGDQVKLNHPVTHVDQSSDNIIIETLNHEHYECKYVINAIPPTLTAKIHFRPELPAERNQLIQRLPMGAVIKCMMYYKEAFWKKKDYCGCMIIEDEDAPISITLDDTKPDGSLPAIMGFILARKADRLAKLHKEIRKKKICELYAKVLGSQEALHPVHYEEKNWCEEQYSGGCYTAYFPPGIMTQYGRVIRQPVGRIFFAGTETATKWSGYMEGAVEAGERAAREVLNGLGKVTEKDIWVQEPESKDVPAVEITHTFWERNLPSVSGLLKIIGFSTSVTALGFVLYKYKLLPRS
Protocol: (§1) Optimization of the compounds, however, aimed predominantly at elimination of MAO-A-inhibitory activity while keeping DYRK1A inhibitory potency, and not at achieving high selectivity for DYRK1A over CLK1. The tests were performed as described by us before in detail. Due to the very large number of test compounds (more than 60), a first screening was performed at a single inhibitor concentration of 1 µM.
(§2) Inhibitors were dissolved in DMSO at a concentration of 10 mM and stored at […]. Working solutions were prepared to achieve a final concentration of 1 µM in the enzyme assays.
Catalytic activity of monoamine oxidase A (MAO-A) was measured by using the luminescence-based MAO-GLO^TM Assay from Promega. Recombinant MAO-A converts a luminogenic MAO substrate into luciferin, which is, in turn, luminometrically detected in a luciferase reaction. The amount of light produced is directly proportional to MAO activity. […] Inhibitory effects of the tested compounds were calculated relative to the activity of control reactions that were run in the absence of inhibitors.

[1] = target: T2, GST-CLK1cat (amino acids 141–484 of human CLK1) (Homo sapiens, UniProt P49759); test: Kinase-GLO luminescent assay of CLK1 catalytic activity; details: for remaining activity at 1 µM: read-out: CLK1 residual activity
T2 construct: containing amino acids 141–484 of human CLK1; made in house; host or cells: E. coli
T2 sequence (P49759 141-484): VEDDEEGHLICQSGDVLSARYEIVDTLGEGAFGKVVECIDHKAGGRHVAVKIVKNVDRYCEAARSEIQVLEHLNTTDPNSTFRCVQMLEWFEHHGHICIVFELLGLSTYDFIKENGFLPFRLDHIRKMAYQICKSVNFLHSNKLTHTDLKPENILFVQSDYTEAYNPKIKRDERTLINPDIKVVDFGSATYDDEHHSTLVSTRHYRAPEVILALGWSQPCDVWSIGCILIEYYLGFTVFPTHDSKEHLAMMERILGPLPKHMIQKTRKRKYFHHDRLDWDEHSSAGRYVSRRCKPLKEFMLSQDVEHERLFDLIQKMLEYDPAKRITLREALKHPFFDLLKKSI
Protocol: as §1, §2
(§3) Recombinant kinases were purified from E. coli as GST (glutathione S-transferase) fusion constructs by affinity adsorption to glutathione-Sepharose. […] Catalytic activity of the kinases was measured with the help of the Kinase-GLO^TM Luminescent Assay from Promega. Assays were performed in a total volume of 10 μL in kinase buffer (25 mM Hepes pH 7.4, 0.5 mM DTT, 5 mM MgCl2, 5 μM ATP) with appropriate peptide substrates (20 μM DYRKtide for the DYRKs and 100 μM DYRKtide for HIPK2, […]; or 100 μM RS peptide for CLK1, […]). Kinases amounts in the assays were adjusted so that approximately 90% of the ATP in the assay was consumed in control samples without inhibitor. Kinase reactions were incubated at room temperature for 30 min before 10 μL Kinase-GLO reagent was added for luminometric measurement of the ATP that was not consumed by the kinases. After incubation at room temperature for an additional 10 min, luminescence was recorded for 1 s (Berthold Orion Microplate Luminometer). ATP consumption in the control samples without inhibitor was set as 100% catalytic activity, and the inhibitory effects of the test compounds were calculated relative to this value.

[2] = target: T3, GST-DYRK1A-ΔC (amino acids 1–499 of rat DYRK1A) (Rattus norvegicus, UniProt Q63470); test: Kinase-GLO luminescent assay of DYRK1A catalytic activity; details: for remaining activity at 1 µM: read-out: DYRK1A residual activity
T3 construct: containing amino acids 1–499 of rat DYRK1A; made in house; host or cells: E. coli
Protocol: as §1, §2, §3

[3] = 1 µM inhibitor concentration, residual activity relative to control without inhibitor

Row | remaining activity at 1 µM (human recombinant MAO-A; [3]) [%] | remaining activity at 1 µM [1, 3] [%] | remaining activity at 1 µM [2, 3] [%] | Molecule | further results
1 | 34 | 76 | 59 | COc1ccc2c(c1)C(O)c1c-2ccnc1C (racemic) [AnnHT3, (±)-7-Methoxy-1-methyl-9H-indeno-[2,1-c]pyridin-9-ol] | 
2 | 101 | 45 | 30 | CCOC(=O)Cn1c2cc(OC)ccc2c2ccnc(C)c21 [AnnH12, Ethyl 2-(7-methoxy-1-methyl-9H-pyrido[3,4-b]indol-9-yl)acetate] | 
3 | 56 | 62 | 94 | CCCCn1c2cc(OC)c(Cl)cc2c2ccnc(C)c21 [AnnH14, 9-Butyl-6-chloro-7-methoxy-1-methyl-9H-pyrido[3,4-b]indole] | 
4 | 100 | 58 | 27 | COc1ccc2c(c1)[nH]c1c(/C=C/c3ccccc3)nccc12 [AnnH18] | 
5 |  | > 90 | 122 | COc1ccc2c3c([nH]c2c1)C(=O)NCC3 [AnnH19, 7-methoxy-2,3,4,9-tetrahydro-1H-pyrido[3,4-b]indol-1-one] | 
6 | 39 | 15 | 3 | COc1ccc2c3ccnc(C)c3n(C/C=C/c3ccccc3)c2c1 [AnnH22, 7-Methoxy-1-methyl-9-((E)-3-phenylallyl)-9H-pyrido[3,4-b]indole] | 
7 | 6 | 34 |  | COc1ccc2c3ccnc(C)c3n(CC(=O)O)c2c1 [AnnH25, 2-(7-Methoxy-1-methyl-9H-pyrido[3,4-b]indol-9-yl)acetic acid] | 
8 | 72 | 79 | 4 | COc1ccc2c3ccnc(C)c3n(CC(=O)OC(C)C)c2c1 [AnnH27, Isopropyl 2-(7-methoxy-1-methyl-9H-pyrido[3,4-b]indol-9-yl)acetate] | 
9 | 131 | 89 |  | COc1ccc2c3ccnc(C)c3n(CC(N)=O)c2c1 [AnnH28, 2-(7-Methoxy-1-methyl-9H-pyrido[3,4-b]indol-9-yl)-N-acetamide] | 
10 | 24 | 87 | 64 | CNC(=O)Cn1c2cc(OC)ccc2c2ccnc(C)c21 [AnnH30, 2-(7-Methoxy-1-methyl-9H-pyrido[3,4-b]indol-9-yl)-N-methylacetamide] | 
11 | 130 | 78 | 75 | COc1ccc2c3ccnc(C)c3n(CC(=O)N(C)C)c2c1 [AnnH34, 2-(7-Methoxy-1-methyl-9H-pyrido[3,4-b]indol-9-yl)-N,N-dimethylacetamide] | 
12 | 128 | 80 | 100 | COc1ccc(Cn2c3cc(OC)ccc3c3ccnc(C)c32)cc1 [AnnH35, 7-Methoxy-9-(4-methoxybenzyl)-1-methyl-9H-pyrido[3,4-b]indole] | 
13 | 19 | 62 | 59 | COc1ccc2c3ccnc(C)c3n(Cc3ccncc3)c2c1 [AnnH36, 7-Methoxy-1-methyl-9-(pyridin-4-yl-methyl)-9H-pyrido[3,4-b]indole] | 
14 | 127 | 31 | 12 | COc1ccc2c3ccnc(C)c3n(CCCc3ccccc3)c2c1 [AnnH38, 7-Methoxy-1-methyl-9-(3-phenylpropyl)-9H-pyrido[3,4-b]indole] | 
15 | 125 | 84 | 91 | COc1ccc2c3ccnc(C)c3n(Cc3ccc4ccccc4c3)c2c1 [AnnH39, 7-Methoxy-1-methyl-9-(2-naphthylmethyl)-9H-pyrido[3,4-b]indole] | 

Continued, molecule first:

Row | Molecule | remaining activity at 1 µM (human recombinant MAO-A; [3]) [%] | remaining activity at 1 µM [1, 3] [%] | remaining activity at 1 µM [2, 3] [%] | further results
16 | 7-Methoxy-1-methyl-9-(prop-2-yn-1-yl)-9H-pyrido[3,4-b]indole [AnnH70] |  |  |  | MAO-A residual activity (human recombinant MAO-A; [3]): 18%; CLK1 residual activity [1, 3]: 17 *** %; DYRK1A residual activity [2, 3]: 6%
17 | COc1ccc2c3ccnc(C)c3n(C)c2c1 [AnnH1] | 2 | 6 |  | 
18 | CCCCn1c2cc(OC)ccc2c2ccnc(C)c21 [AnnH3, 9-Butyl-7-methoxy-1-methyl-9H-pyrido[3,4-b]indole] | 10 | 24 |  | 
19 | COc1ccc2c3ccnc(C)c3n(Cc3ccccc3)c2c1 [AnnH4, 9-Benzyl-7-methoxy-1-methyl-9H-pyrido[3,4-b]indole] | 80 |  | 88 | 
20 | COc1c(Br)cc2c([nH]c3c(C)nccc32)c1Br [AnnH5_1] | 70 |  | 101 | 
21 | COc1cc2[nH]c3c(C)nccc3c2cc1Br [AnnH5_2] | 7 |  | 88 | 
22 | COc1ccc2c([nH]c3c(C)nccc32)c1Br [AnnH5_3, 8-bromo-7-methoxy-1-methyl-9H-pyrido[3,4-b]indole] | 8 |  | 95 | 
23 | COc1c(Br)cc2c([nH]c3c(C)nc(Br)cc32)c1Br [AnnH5_4, 3,6,8-tribromoharmine] |  |  | 126 | 
24 | COc1ccc2c([nH]c3c(C)nccc32)c1Cl [AnnH6_1, 8-chloro-7-methoxy-1-methyl-9H-pyrido[3,4-b]indole] | 16 |  | 97 | 
25 | COc1c(Cl)cc2c([nH]c3c(C)nccc32)c1Cl [AnnH6_3_1] | 64 |  | 99 | 
26 | COc1cc2[nH]c3c(C)nccc3c2cc1Cl [AnnH6_3_2, 6-chloro-7-methoxy-1-methyl-9H-pyrido[3,4-b]indole] | 9 |  | 92 | 
27 | CCCCn1c2c(C)nccc2c2ccc(OC)c(Br)c21 [AnnH9, 8-Bromo-9-butyl-7-methoxy-1-methyl-9H-pyrido[3,4-b]indole] | 8 |  | 96 | 
28 | CCCCn1c2c(C)nccc2c2ccc(OC)c(Cl)c21 [AnnH11, 9-Butyl-8-chloro-7-methoxy-1-methyl-9H-pyrido[3,4-b]indole] | 4 | 60 | 104 | 
29 | COc1ccc2c3ccnc(C)c3n(CCN(C)C)c2c1 [AnnH16, [2-(7-Methoxy-1-methyl-9H-pyrido[3,4-b]indol-9-yl)-ethyl]-dimethylamine] | 103 |  | 107 | 
30 | COc1ccc2c(c1)[nH]c1c(=O)[nH]ccc12 [AnnH20, 7-Methoxy-2,9-dihydro-1H-pyrido[3,4-b]indol-1-one] |  |  |  | remaining activity at 1 µM (human recombinant MAO-A): 127%
31 | COc1ccc2c(c1)[nH]c1c(Cl)nccc12 [AnnH24, 1-chloro-7-methoxy-9H-pyrido[3,4-b]indole] |  | 17 |  | remaining activity at 1 µM (human recombinant MAO-A): 103%
32 | CCOC(=O)CCn1c2cc(OC)ccc2c2ccnc(C)c21 [AnnH32, Ethyl 3-(7-Methoxy-1-methyl-9H-pyrido[3,4-b]indol-9-yl)propanoate] |  |  |  | remaining activity at 1 µM (human recombinant MAO-A): 105%; remaining activity at 1 µM [1]: 44%; remaining activity at 1 µM [2]: 12%
33 | Cc1nccc2c1[nH]c1ccccc12 [harmane, reference compound] |  |  |  | remaining activity at 1 µM (human recombinant MAO-A): 18%; remaining activity at 1 µM [2]: 97%
